Among the data in article PMC4658637 (2015) are KD and binding values, retold here.

The test system of assay [1] is SPR-c-kit2 (DNA, G4) GGGCGGGCGCGAGGGAGGGG
Briefly: SPR. Conditions: 100 mM K+ (KCl); 50 mM Tris-HCl, pH 7.2, 25 °C; Langmuir kinetic fit.

Assay [2] deals with KRAS (DNA, G4) AGGGCGGTGTGGGAAGAGGGAAGAGGGGGAGG
Briefly: fluorescence titration. Conditions: 100 mM K+ (KCl); 10 mM Tris-HCl, pH 7.2; strong light-up of 15 at 525 nm.

Assay [3] deals with Pu22 (DNA, G4) TGAGGGTGGGTAGGGTGGGTAA
Kind of assay: fluorescence titration. The settings on record: 100 mM K+ (KCl); 10 mM Tris-HCl, pH 7.2; strong light-up of 15 at 525 nm.

Assay [4] deals with bcl-2 (DNA, G4) GGGCGGGCGCGGGAGGAAGGGGGCGGG
Kind of assay: fluorescence titration. Conditions: 100 mM K+ (KCl); 10 mM Tris-HCl, pH 7.2; strong light-up of 15 at 525 nm.

Assay [5] has as its system c-kit2 (DNA, G4) GGGCGGGCGCGAGGGAGGGG
Briefly: fluorescence titration. The settings on record: 100 mM K+ (KCl); 10 mM Tris-HCl, pH 7.2; strong light-up of 15 at 525 nm.

Assay [6] concerns HT-L2H (DNA, G4) TTGGGTTAGGGTTAGGGTTAGGGA
Briefly: fluorescence titration. Conditions: 100 mM K+ (KCl); 10 mM Tris-HCl, pH 7.2; much weaker light-up, up to 5 μM DNA.

The test system of assay [7] is htg22 (DNA, G4) AGGGTTAGGGTTAGGGTTAGGG
Kind of assay: fluorescence titration. The settings on record: 100 mM K+ (KCl); 10 mM Tris-HCl, pH 7.2; much weaker light-up, up to 5 μM DNA.

The test system of assay [8] is HRAS (DNA, G4) TCGGGTTGCGGGCGCAGGGCACGGGCG
Kind of assay: fluorescence titration. The settings on record: 100 mM K+ (KCl); 10 mM Tris-HCl, pH 7.2; much weaker light-up, up to 5 μM DNA.

In assay [9] the test system is TBA (DNA, G4) GGTTGGTGTGGTTGG
Briefly: fluorescence titration. The settings on record: 100 mM K+ (KCl); 10 mM Tris-HCl, pH 7.2; much weaker light-up, up to 5 μM DNA.

Assay [10] relates to c-kit3 (DNA, G4) GGCGAGGAGGGGCGTGGCCGGC
Briefly: fluorescence titration. The settings on record: 100 mM K+ (KCl); 10 mM Tris-HCl, pH 7.2; much weaker light-up, up to 5 μM DNA.

Assay [11] deals with c-kit2-Ap4 (DNA, G4, 2-aminopurine at 4 (replaces C)) GGGCGGGCGCGAGGGAGGGG
Briefly: 2-aminopurine fluorescence titration. The settings on record: 100 mM K+ (KCl); 10 mM Tris-HCl, pH 7.2; 1 μM DNA, 0-10 μM compound.

Assay [12] deals with c-kit2-Ap12 (DNA, G4, 2-aminopurine at 12) GGGCGGGCGCGAGGGAGGGG
Kind of assay: 2-aminopurine fluorescence titration. The settings on record: 100 mM K+ (KCl); 10 mM Tris-HCl, pH 7.2; 1 μM DNA, 0-10 μM compound.

The test system of assay [13] is c-kit2-Ap16 (DNA, G4, 2-aminopurine at 16) GGGCGGGCGCGAGGGAGGGG
Kind of assay: 2-aminopurine fluorescence titration. Conditions: 100 mM K+ (KCl); 10 mM Tris-HCl, pH 7.2; 1 μM DNA, 0-10 μM compound.

The test system of assay [14] is HRAS-Ap7 (DNA, G4, 2-aminopurine at 7 (replaces T)) TCGGGTTGCGGGCGCAGGGCACGGGCG
Briefly: 2-aminopurine fluorescence titration. The settings on record: 100 mM K+ (KCl); 10 mM Tris-HCl, pH 7.2; 1 μM DNA, 0-10 μM compound.

In assay [15] the test system is HRAS-Ap16 (DNA, G4, 2-aminopurine at 16) TCGGGTTGCGGGCGCAGGGCACGGGCG
Briefly: 2-aminopurine fluorescence titration. The settings on record: 100 mM K+ (KCl); 10 mM Tris-HCl, pH 7.2; 1 μM DNA, 0-10 μM compound.

The test system of assay [16] is HRAS-Ap21 (DNA, G4, 2-aminopurine at 21) TCGGGTTGCGGGCGCAGGGCACGGGCG
Briefly: 2-aminopurine fluorescence titration. Conditions: 100 mM K+ (KCl); 10 mM Tris-HCl, pH 7.2; 1 μM DNA, 0-10 μM compound.

For orientation: KD means the equilibrium constant for the complex coming apart. Take `C#CCOc1ccc(-c2[nH]c(-c3cc4ccc(N(CC)CC)cc4oc3=O)nc2-c2ccc(OCCCN(CC)CC)cc2)cc1`: in assay [1], the KD stood at 13.9 µM.
In assay [1], `CCN(CC)CCCOc1ccc(-c2nc(-c3cc4ccc(N(CC)CC)cc4oc3=O)[nH]c2-c2ccc(OCc3cn(CCC(=O)O)nn3)cc2)cc1` showed a KD of 6.1 µM. The binding entry is listed as “yes” in assay [2]; “yes” in [3]; “yes” in assay [4]; “yes” in assay [5]; “weak” in assay [6]; “weak” in [7]. The binding result in assay [8] was “weak”; in assay [9], “weak”; in assay [10], “weak”; in assay [11], “yes”; in assay [12], “yes”; in assay [13], “yes”. Moreover, the binding result in assay [14], in [15] and in assay [16] was “weak” each time.
For `CCN(CC)CCCOc1ccc(-c2nc(-c3cc4ccc(N(CC)CC)cc4oc3=O)[nH]c2-c2ccc(OCc3cn(CCCN(C)C)nn3)cc2)cc1`, the KD in [1] amounted to 4.3 µM.
Regarding `CCN(CC)CCCOc1ccc(-c2nc(-c3cc4ccc(N(CC)CC)cc4oc3=O)[nH]c2-c2ccc(OCc3cn(CCCN4CCN(C)CC4)nn3)cc2)cc1`, the KD in [1] is 2.0 µM. Further, the binding result in [11], in assay [13], in assay [14] and in assay [16] was “yes” in each case.
As to `CCN(CC)CCCOc1ccc(-c2nc(-c3cc4ccc(N(CC)CC)cc4oc3=O)[nH]c2-c2ccc(OCc3cn(CCCO)nn3)cc2)cc1`, the KD in assay [1] was 3.1 µM. This counts as single-digit micromolar.
Still for that read-out and setting: for `CCN(CC)CCCOc1ccc(-c2nc(-c3cc4ccc(N(CC)CC)cc4oc3=O)[nH]c2-c2ccc(OCc3cn(CCN(C)C)nn3)cc2)cc1` the value was 2.7 µM; for `CCN(CC)CCCOc1ccc(-c2nc(-c3cc4ccc(N(CC)CC)cc4oc3=O)[nH]c2-c2ccc(OCc3cn(CCN4CCCCC4)nn3)cc2)cc1`, 1.8 µM.
As for `CCN(CC)CCCOc1ccc(-c2nc(-c3cc4ccc(N(CC)CC)cc4oc3=O)[nH]c2-c2ccc(OCc3cn(CCN4CCOCC4)nn3)cc2)cc1`, the dissociation constant (KD) in [1] was 4.8 µM.
